Data from ChEMBL document CHEMBL4483862, “Open-source discovery of chemical leads for next-generation chemoprotective antimalarials” (2018).

Tested on: Plasmodium berghei
Assay: Luciferase/luciferin-expressing antifolate-resistant parasites were used to infect a culture of HepG2 cells that were pre-incubated with compounds. Infected hepatocytes emit light due to the luciferase reaction. Assay results are presented as the percent inhibition of light emission compared to control. […]
Type: functional
Settings: sporozoite; for IC90: read-out: LUCIFERASE INFECTION ASSAY - IC90

Row | Compound | IC90 [µM] | also measured
1 | c1ccc(CCNc2nccc3nc(-c4ccccc4)[nH]c23)cc1 | 4.09 | IC50 (HEPG2TOX_HILL_SLOPE 7.38, HEPG2TOX_R_SQUARED 0.753, PBLUC_HILL_SLOPE 1.8, PBLUC_R_SQUARED 0.435, read-out: LUCIFERASE INFECTION ASSAY - IC50): 1.21 µM
2 | CCC(=O)NC1=C(Nc2ccc(SC(F)F)cc2)C(=O)c2ccccc2C1=O | 4.5 | IC50 (HEPG2TOX_HILL_SLOPE 7.23, HEPG2TOX_R_SQUARED 0.37, PBLUC_HILL_SLOPE 1.96, PBLUC_R_SQUARED 0.792, read-out: LUCIFERASE INFECTION ASSAY - IC50): 1.47 µM
3 | c1ccc(CN2CCOCC2)c(CNc2ncnc3sccc23)c1 | > 10 | IC50 (HEPG2TOX_HILL_SLOPE 7.26, HEPG2TOX_R_SQUARED 0.756, read-out: LUCIFERASE INFECTION ASSAY - IC50): > 10 µM
4 | O=C(Nc1ccc(Cl)c(Cl)c1)Nc1c(-c2ccccc2)nc2ccccn12 | 4.52 | IC50 (HEPG2TOX_HILL_SLOPE 7.35, HEPG2TOX_R_SQUARED 0.457, PBLUC_HILL_SLOPE 10, PBLUC_R_SQUARED 0.727, read-out: LUCIFERASE INFECTION ASSAY - IC50): 3.63 µM
5 | COCC(C)Nc1ncnc2scc(-c3ccc(OC)cc3)c12 (centres undefined) | 4.03 | IC50 (HEPG2TOX_HILL_SLOPE 7.42, HEPG2TOX_R_SQUARED 0.779, PBLUC_HILL_SLOPE 12.3, PBLUC_R_SQUARED 0.781, read-out: LUCIFERASE INFECTION ASSAY - IC50): 3.37 µM
6 | O=C(N/N=C/c1cc(Cl)ccc1O)N/N=C/c1cc(Cl)ccc1O | > 8.99 | IC50 (HEPG2TOX_HILL_SLOPE 7.47, HEPG2TOX_R_SQUARED 0.53, read-out: LUCIFERASE INFECTION ASSAY - IC50): > 8.99 µM
7 | COc1ccc(C(C)C)cc1-c1cnc(N)c(-c2cccc(C(F)(F)F)c2)c1 | > 8.54 | IC50 (HEPG2TOX_HILL_SLOPE 7.33, HEPG2TOX_R_SQUARED 0.431, PBLUC_HILL_SLOPE 11.3, PBLUC_R_SQUARED 0.541, read-out: LUCIFERASE INFECTION ASSAY - IC50): 8.01 µM
8 | O=C(Nc1ccc2c(c1)OCO2)c1cnc(N2CCN(CCc3ccccc3)C2=O)o1 | > 10 | IC50 (HEPG2TOX_HILL_SLOPE 7.5, HEPG2TOX_R_SQUARED 0.498, PBLUC_HILL_SLOPE 1.96, PBLUC_R_SQUARED 0.361, read-out: LUCIFERASE INFECTION ASSAY - IC50): 3.61 µM
9 | O=C(Cc1ccccc1)Nc1ccccc1C(=O)Nc1nc2ccccc2[nH]1 | > 10 | IC50 (HEPG2TOX_HILL_SLOPE 7.34, HEPG2TOX_R_SQUARED 0.432, read-out: LUCIFERASE INFECTION ASSAY - IC50): > 10 µM
10 | O=C(Nc1cccc(C(F)(F)F)c1)Nc1ccccc1Sc1c(Cl)cncc1Cl | > 7.2 | IC50 (HEPG2TOX_HILL_SLOPE 7.44, HEPG2TOX_R_SQUARED 0.649, PBLUC_HILL_SLOPE 2.82, PBLUC_R_SQUARED 0.349, read-out: LUCIFERASE INFECTION ASSAY - IC50): 4.94 µM
11 | Nc1ccc(-c2cn3c(-c4ccc(Oc5ccccc5)cc4)cnc3cn2)cn1 | > 8.7 | IC50 (HEPG2TOX_HILL_SLOPE 7.27, HEPG2TOX_R_SQUARED 0.167, PBLUC_HILL_SLOPE 11.9, PBLUC_R_SQUARED 0.186, read-out: LUCIFERASE INFECTION ASSAY - IC50): 7.28 µM
12 | COc1cc(OC)c(NC(=O)CN2CCC(c3c[nH]c4ccccc34)CC2)cc1Cl | > 10 | IC50 (HEPG2TOX_HILL_SLOPE 7.32, HEPG2TOX_R_SQUARED 0.598, PBLUC_HILL_SLOPE 4.32, PBLUC_R_SQUARED 0.304, read-out: LUCIFERASE INFECTION ASSAY - IC50): 8.18 µM
13 | Cc1ccc(C(=O)c2ccccc2C(=O)OC(C)C(=O)N(Cc2ccccc2)Cc2ccccc2)cc1 (centres undefined) | 9.62 | IC50 (HEPG2TOX_HILL_SLOPE 7.35, HEPG2TOX_R_SQUARED 0.243, PBLUC_HILL_SLOPE 15.7, PBLUC_R_SQUARED 0.159, read-out: LUCIFERASE INFECTION ASSAY - IC50): 8.36 µM
14 | COCc1ccc(C(=O)Nc2ccc(-n3cnc4ccccc43)nc2)cc1 | > 10 | IC50 (HEPG2TOX_HILL_SLOPE 7.46, HEPG2TOX_R_SQUARED 0.472, PBLUC_HILL_SLOPE 11.4, PBLUC_R_SQUARED 0.343, read-out: LUCIFERASE INFECTION ASSAY - IC50): 9.69 µM
15 | C/C(=N\Nc1nc2ccccc2o1)c1ccc2ccccc2c1O | > 10 | IC50 (HEPG2TOX_HILL_SLOPE 7.42, HEPG2TOX_R_SQUARED 0.127, PBLUC_HILL_SLOPE 13.1, PBLUC_R_SQUARED 0.536, read-out: LUCIFERASE INFECTION ASSAY - IC50): 8.85 µM
16 | CCCNC(=O)c1c(NC(=O)c2cccc(OC)c2)nc2ccc(C)cn12 | 8.77 | IC50 (HEPG2TOX_HILL_SLOPE 7.34, HEPG2TOX_R_SQUARED 0.277, PBLUC_HILL_SLOPE 3.84, PBLUC_R_SQUARED 0.328, read-out: LUCIFERASE INFECTION ASSAY - IC50): 4.95 µM
17 | NC(=O)c1ccc(-c2cc(-c3ccccc3)cnc2N)cc1 | 4.22 | IC50 (HEPG2TOX_HILL_SLOPE 7.43, HEPG2TOX_R_SQUARED 0.0328, PBLUC_HILL_SLOPE 16.6, PBLUC_R_SQUARED 0.439, read-out: LUCIFERASE INFECTION ASSAY - IC50): 3.7 µM
